Results as given in ChEMBL document CHEMBL1275397, “Effects on molecular conformation and anticoagulant activities of 1,6-anhydrosugars at the reducing terminal of antithrombin-binding octasaccharides isolated from low-molecular-weight heparin enoxaparin” (J Med Chem, 2010).

How the values were obtained:
[1] = Binding affinity to human antithrombin in HEPES buffer containing 0.1 M sodium chloride assessed as increase of serpin intrinsic fluorescence by fluorospectrophotometric analysis
[2] = Binding affinity to human antithrombin in HEPES buffer containing 0.25 M sodium chloride assessed as increase of serpin intrinsic fluorescence by fluorospectrophotometric analysis
[3] = target: Coagulation factor X (Homo sapiens) (UniProt P00742); assay: Inhibition of factor 10a in aqueous buffer solutions assessed as specific activity of enzyme
Chain of Coagulation factor X (Homo sapiens) (P00742 41-179 limits assumed): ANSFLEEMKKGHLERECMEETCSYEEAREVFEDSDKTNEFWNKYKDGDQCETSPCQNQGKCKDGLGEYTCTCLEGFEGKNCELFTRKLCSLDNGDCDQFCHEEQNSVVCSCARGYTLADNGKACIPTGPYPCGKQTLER
Chain of Coagulation factor X (Homo sapiens) (P00742 235-488 limits assumed): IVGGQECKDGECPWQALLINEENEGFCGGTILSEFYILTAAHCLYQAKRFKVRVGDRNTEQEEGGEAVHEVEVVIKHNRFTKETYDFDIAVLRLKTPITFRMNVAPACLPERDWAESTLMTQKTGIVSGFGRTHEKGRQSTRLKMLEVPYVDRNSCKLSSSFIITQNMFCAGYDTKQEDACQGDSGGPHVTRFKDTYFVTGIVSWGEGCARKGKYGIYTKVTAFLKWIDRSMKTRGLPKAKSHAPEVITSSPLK

[4] = target: Coagulation factor X (Homo sapiens) (UniProt P00742); assay: Inhibition of factor 10a in human plasma assessed as specific activity of enzyme; format: cell-free
[5] = Binding affinity to human antithrombin in HEPES buffer containing 0.50 M sodium chloride assessed as increase of serpin intrinsic fluorescence by fluorospectrophotometric analysis

| Structure (SMILES) | Kd [1] [nM] | Kd [2] [nM] | Activity [3] [U/mg] | Activity [4] [U/mg] | Kd [5] [nM] |
| --- | --- | --- | --- | --- | --- |
| CC(=O)N[C@H]1[C@@H](O[C@H]2[C@H](O)[C@@H](O)[C@H](O[C@H]3[C@H](OS(=O)(=O)O)[C@@H](NS(=O)(=O)O)[C@@H](O[C@H]4[C@H](O)[C@@H](OS(=O)(=O)O)[C@H](O[C@H]5[C@H](O)[C@H](NS(=O)(=O)O)[C@H]6OC[C@H]5O6)O[C@H]4C(=O)O)O[C@@H]3COS(=O)(=O)O)O[C@@H]2C(=O)O)O[C@H](COS(=O)(=O)O)[C@@H](O[C@@H]2O[C@@H](C(=O)O)[C@@H](O[C@H]3O[C@H](COS(=O)(=O)O)[C@@H](O[C@@H]4OC(C(=O)O)=C[C@H](O)[C@H]4OS(=O)(=O)O)[C@H](O)[C@H]3NS(=O)(=O)O)[C@H](O)[C@H]2O)[C@@H]1O | 900 | > 10000 | 51.4 | 49.6 |  |
| CC(=O)N[C@H]1[C@@H](O[C@H]2[C@H](O)[C@@H](O)[C@H](O[C@H]3[C@H](OS(=O)(=O)O)[C@@H](NS(=O)(=O)O)[C@@H](O[C@H]4[C@H](O)[C@@H](OS(=O)(=O)O)[C@H](O[C@H]5[C@H](O)[C@@H](NS(=O)(=O)O)[C@@H](O)O[C@@H]5COS(=O)(=O)O)O[C@H]4C(=O)O)O[C@@H]3COS(=O)(=O)O)O[C@@H]2C(=O)O)O[C@H](COS(=O)(=O)O)[C@@H](O[C@@H]2O[C@@H](C(=O)O)[C@@H](O[C@H]3O[C@H](COS(=O)(=O)O)[C@@H](O[C@@H]4OC(C(=O)O)=C[C@H](O)[C@H]4OS(=O)(=O)O)[C@H](O)[C@H]3NS(=O)(=O)O)[C@H](O)[C@H]2O)[C@@H]1O | 120 |  |  |  | 2740 |
| CC(=O)N[C@H]1[C@@H](O[C@H]2[C@H](O)[C@@H](O)[C@H](O[C@H]3[C@H](OS(=O)(=O)O)[C@@H](NS(=O)(=O)O)[C@@H](O[C@H]4[C@H](O)[C@@H](OS(=O)(=O)O)[C@H](O[C@H]5[C@H](O)[C@@H](NS(=O)(=O)O)[C@H]6OC[C@H]5O6)O[C@H]4C(=O)O)O[C@@H]3COS(=O)(=O)O)O[C@@H]2C(=O)O)O[C@H](COS(=O)(=O)O)[C@@H](O[C@@H]2O[C@@H](C(=O)O)[C@@H](O[C@H]3O[C@H](COS(=O)(=O)O)[C@@H](O[C@@H]4OC(C(=O)O)=C[C@H](O)[C@H]4OS(=O)(=O)O)[C@H](O)[C@H]3NS(=O)(=O)O)[C@H](O)[C@H]2O)[C@@H]1O | 1230 | > 10000 | 39.6 | 39.3 |  |
